# In US5750536A, “Tropyl 7-azaindol-3-ylcarboxyamides as antitussive agent” (priority 1993, dated 1998):
# Entries after “also recorded” stand apart in the source; their conditions may differ. Where two headings read alike, the source gives them in different places.
# Assays:
# [1] = tested on: coughing stimulus by ac. citric; assay: Inhibition of cough induced by inhalation of citric acid; type: in vivo, guinea pigs; settings: for ED50: Cavia porcellus, po, read-out: ID50 coughing stimulus ac. citric; for % inhibition of the coughing stimulus by ac. citric: guinea pigs, single dose 100 mg/kg
# Method: (§1) Besides these differences "in vitro" on the receptor behaviour great differences has been evidenced "in vivo" in the tussive stimulus inhibition provoked by inhalation of irritant citric acid as well as capsaicine aqueous solutions.
# (§2) The compounds have been tested in guinea pigs in comparison to codeine, used as standard compound, at the single dose of 100 mg/kg according to the technique of Charlier et al., (Arch. Int. Pharmacodyn., 134, 306, 1961) which has been slightly modified.
# (§3) The percent reduction evaluated in the number of short coughs after administration of the compound under examination taken in comparison to the number of short coughs observed in each of the animals to which the compound was administered, have been noted.
# (§4) For these compounds as well as for the most interesting reference compounds the dose inhibiting 50% of the short coughs (ID50) induced either by citric acid or capsaicine has been determined.
# [2] = tested on: coughing stimulus by capsaicin; assay: Inhibition of cough induced by inhalation of capsaicin; type: in vivo, guinea pigs; settings: for ED50: Cavia porcellus, po, read-out: ID50 coughing stimulus capsaicin; for % inhibition of the coughing stimulus by capsaicin: guinea pigs, single dose 100 mg/kg
# Method: as §1, §2, §3, §4
# σ = assay: Displacement of selective ligand from σ receptor (δ in text); type: binding; settings: 10^-5 M; 10 µM
# 5-HT1 = assay: Binding test 5-HT1; settings: at 3.6 10^-5 M
# Description: Compounds A and Compounds B of the present invention, which are examples of endo-tropyl and quinuclidylamide of 7-azaindolyl-3-carboxylic acid respectively have been studied "in vitro" for their interaction with the 5-HT1, 5-HT2 and 5-HT3 receptors.
# Binding Test: 5-HT1 5-HT2
# % of inhibition at 3.6 10^-5 M
# [3] = tested on: extra vasation by capsaicine; assay: Protection from capsaicine extravasation (Evans bleu); type: in vivo
# Description: It is assumed that Capsaicine releases substance P from the peripheral nerve endings of the sensitive fibers C and determines the necrosis of the same. It is known that capsaicine administration provokes the formation of an exudate (extra vasation by capsaicine) which can be evaluated by concomitant Evans bleu administration.
# α1 = assay: Displacement of selective ligand from α1 receptor; type: binding; settings: 10^-5 M; 10 µM
# Description: (§5) The interaction of Compounds A and B with other receptors (α1, α2, benzodiazepine (o bzd), GABA A, δ) in comparison to the typical 5-HT3 antagonist Ondastron and BRL 24682 has been studied and for each case the displacement % of the single selective ligand from the corresponding receptor at concentration 10^-5 M of the compounds under examination, has been evaluated.
# α2 = assay: Displacement of selective ligand from α2 receptor; type: binding; settings: 10^-5 M; 10 µM
# Description: as §5
# GABA A = assay: Displacement of selective ligand from GABA A receptor; type: binding; settings: for Dispacement percentage Gaba A: 10^-5 M, 10 µM
# [4] = tested on: sleeping time induced by barbiturates; assay: Increase of sleeping time induced by barbiturates; type: in vivo, mice; settings: for sleeping time increase: mice, barbiturate-induced sleep
# Description: For each of the compounds under examination it has been also tested the effect on the increase of the sleeping time induced by barbiturates. […]
# [5] = tested on: coughing stimulus by capsaicin; assay: Inhibition of cough induced by inhalation of capsaicin; type: in vivo; settings: guinea pigs
# [6] = tested on: cough induced by capsaicine; assay: Antitussive effect, capsaicine aqueous solution as irritant (Table V); type: in vivo, mice; settings: os; for short coughs average n° ± s.e. / short coughs inhib. %: single dose 100 mg/kg, mice
# Method: (§6) Further compound A (N-endo-8-methyl-8-azabicyclo [3,2,1] oct-3-yl)-7-azaindolyl-3-carboxamide has been tested for its antitussive effect in comparison to the closest compound belonging to the class of compounds of Japanese Kokai Tokkyo Koho JP 04 21 681, i.e., 8-methyl-8-azabicyclo [3,2,1] oct-3-yl)-1-methyl-7-azaindolyl-3-carboxamide. The compounds were administered by os at a single dose of 100 mg/kg on mice using as irritant agent capsaicine aqueous solution according to the previous mentioned technique.
# as §6, with “.vertline.3,2,1.vertline.” for “[3,2,1]”, “antitussiv” for “antitussive”, “Jpn.” for “Japanese”, “i.e. 8-methyl-8-azabicliclo .vertline.3,2,1.vertline.” for “i.e., 8-methyl-8-azabicyclo [3,2,1]”
# [7] = tested on: benzodiazepine (bdz) receptor; assay: Displacement of selective ligand from benzodiazepine receptor; type: binding
# Description: as §5
# [8] = tested on: coughing stimulus by 2N H2 SO4; assay: Inhibition of cough induced by 2N H2SO4; type: in vivo, guinea pigs; settings: Cavia porcellus, po, read-out: ID50 coughing stimulus 2N H2 SO4
# Acute oral toxicity = settings: mouse, in vivo, mice
# Method: The compounds of the invention may be administered by oral, sublingual, endovenous, subcutaneous, intramuscular, rectal route and by inhalation. The preferred doses vary from about 0.05 to about 15 mg/kg/die, depending on the conditions, weight, age of the patient and on the administration route. Higher dosages of the compounds of the invention, even for a prolonged period of time, have no contraindication because of their very low toxicity.
# 5-HT3 = biological target: T1, 5-HT3 (Homo sapiens, UniProt P46098); assay: Binding test 5-HT3
# T1 sequence (P46098 24-478): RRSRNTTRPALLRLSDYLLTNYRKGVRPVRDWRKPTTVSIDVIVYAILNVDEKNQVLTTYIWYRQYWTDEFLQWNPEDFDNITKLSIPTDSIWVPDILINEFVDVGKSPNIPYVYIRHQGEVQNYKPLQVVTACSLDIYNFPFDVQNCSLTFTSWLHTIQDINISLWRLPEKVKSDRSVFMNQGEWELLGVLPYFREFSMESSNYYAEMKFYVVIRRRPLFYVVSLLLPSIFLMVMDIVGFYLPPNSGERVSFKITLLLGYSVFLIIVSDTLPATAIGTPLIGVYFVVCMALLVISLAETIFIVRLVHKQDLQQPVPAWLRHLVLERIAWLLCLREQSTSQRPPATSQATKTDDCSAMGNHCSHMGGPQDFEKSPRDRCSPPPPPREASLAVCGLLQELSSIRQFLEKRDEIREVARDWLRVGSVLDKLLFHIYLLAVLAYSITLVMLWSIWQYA
# 5-HT2 = assay: Binding test 5-HT2; settings: at 3.6 10^-5 M
smiles,measurement,setting,value
"Cc1nccn1CC1CCc2c(c3ccccc3n2C)C1=O (racemic) [Ondasetron, reference compound]",ED50,"[1]; os, 95% confidence",209 mg/kg
same,% inhibition of the coughing stimulus by ac. citric,[1],30.5%
same,ED50,"[2]; os, 95% confidence",97 mg/kg
same,% inhibition of the coughing stimulus by capsaicin,[2],50.5%
same,Dispacement percentage σ,σ,45%
same,% of inhibition 5-HT1,5-HT1,7.6%
same,protection from capsaicine extravasation (in words),[3]; 10 mg/kg i.p.,Solely Compound A and not Ondasetron has been found to give a 42% protection
same,Dispacement percentage α1,α1,72%
same,Dispacement percentage α2,α2,30%
same,interaction towards GABA A receptor (in words),GABA A,aspecific
same,Dispacement percentage Gaba A,GABA A,38%
same,sleeping time increase,[4]; at the dose of 10 mg/kg,-8
COc1ccccc1CN[C@H]1C2CCN(CC2)[C@H]1C(c1ccccc1)c1ccccc1 (relative stereo) [CP 96 345],"short cough inhibition, capsaicin",[5]; 10 mg/kg intraperitoneal,26%
same,"short cough inhibition, capsaicin",[5]; 40 mg/kg intraperitoneal,42%
"CN1C2CCC1CC(NC(=O)c1cn(C)c3ncccc13)C2 (stereo not shown) [8-methyl-8-azabicyclo [3,2,1] oct-3-yl)-1-methyl-7-azaindolyl-3-carboxamide, reference compound]",short coughs average n° ± s.e.,[6],6.5 ± 0.7
same,short coughs inhib. %,[6],6%
"COc1cc(N)c(Cl)cc1C(=O)N[C@H]1C[C@H]2CC[C@@H](C1)N2C [BRL 24682, N-(endo-8-methyl-8-azabicyclo-[3.2.1]oct-3-yl)-2-methoxy-4-amino-5-chlorobenzamide, reference compound]",% inhibition of the coughing stimulus by ac. citric,[1],44.1%
same,Dispacement percentage σ,σ,0%
same,Dispacement percentage α1,α1,28%
same,Dispacement percentage α2,α2,16%
same,interaction towards GABA A receptor (in words),GABA A,high interaction with the benzodiazepine and GABA A receptors
same,Dispacement percentage Gaba A,GABA A,89%
same,interaction with benzodiazepine receptor (in words),[7],high interaction with the benzodiazepine and GABA A receptors
same,Dispacement percentage bdz,"[7]; 10^-5 M, 10 µM",98%
same,sleeping time increase,"[4]; oral, single dose 100 mg/kg",+34.8
"COc1ccc2c3c1O[C@H]1[C@@H](O)C=C[C@H]4[C@@H](C2)N(C)CC[C@@]341 [Codeine, reference compound]",ED50,[1],65 mg/kg
same,% inhibition of the coughing stimulus by ac. citric,[1],63.2%
same,ED50,[2],74 mg/kg
same,% inhibition of the coughing stimulus by capsaicin,[2],58.4%
same,ED50,[8],102 mg/kg
same,sleeping time increase,"[4]; oral, single dose 100 mg/kg",+106.4
"CN1[C@@H]2CC[C@H]1C[C@@H](NC(=O)c1c[nH]c3ncccc13)C2 [Compound A, N-(endo-8-methyl-8-azabicyclo[3.2.1]oct-3-yl)-7-azaindolyl-3-carboxamide]",ED50,[1],57 mg/kg
same,"antitussive effect, citric acid (in words)","[1]; guinea pig, in vivo",depends on the dose administered; also recorded: at least equiactive as codeine
same,% inhibition of the coughing stimulus by ac. citric,[1],61.7%
same,ED50,[2],51 mg/kg
same,"antitussive effect, capsaicin (in words)","[2]; guinea pig, in vivo",depends on the dose administered; also recorded: at least equiactive as codeine
same,% inhibition of the coughing stimulus by capsaicin,[2],76.30%
same,"antitussive effect, Table V (in words)",[6]; 100 mg/kg,effective as an antitussive compound; also recorded: effectiveness of compound A as antitussive compound
same,short coughs average n° ± s.e.,[6],1.8 ± 0.5
same,short coughs inhib. %,[6],75%
same,LD50,Acute oral toxicity,1000 mg/kg
same,Dispacement percentage σ,σ,70%
same,IC50,5-HT3,3000 nM
same,interaction with 5-HT3 receptors (in words),5-HT3,very weak interaction with 5-HT3 receptors
same,interaction with 5-HT3 receptors relative to Compound B (in words),5-HT3; vs Compound B,logarithmically lower than that of Compound B
same,interaction with 5-HT3 receptors relative to Ondasetron (times lower),5-HT3; vs Ondasetron,"1,000 times"
same,% of inhibition 5-HT2,5-HT2,8.6%
same,% of inhibition 5-HT1,5-HT1,0.0%
same,protection from capsaicine extravasation,"[3]; 10 mg/kg intraperitoneal, vs non-treated animals",42%
same,Dispacement percentage α1,α1,13%
same,interaction towards GABA A receptor (in words),GABA A,"unusual ability of a double interaction, apparently selective, towards GABA A and δ receptors"
same,Dispacement percentage Gaba A,GABA A,83%
same,sleeping time increase,"[4]; oral, single dose 100 mg/kg",-28.9
same,increase of the sleeping time induced by barbiturates (in words),"[4]; mouse, in vivo",does not show any increase of the sleeping time induced by barbiturates
"O=C(NC1CN2CCC1CC2)c1c[nH]c2ncccc12 (stereo not shown) [Compound B, N-(1-azabicyclo[2.2.2]oct-3-yl)-7-azaindolyl-3-carboxamide]",% inhibition of the coughing stimulus by ac. citric,[1],46.0%
same,% inhibition of the coughing stimulus by capsaicin,[2],21.0%
same,Dispacement percentage σ,σ,26%
same,IC50,5-HT3,300 nM
same,% of inhibition 5-HT2,5-HT2,3.9%
same,% of inhibition 5-HT1,5-HT1,37.0%
same,Dispacement percentage α1,α1,7%
same,interaction towards GABA A receptor (in words),GABA A,definitely weak or absent
same,Dispacement percentage Gaba A,GABA A,6.7%
same,sleeping time increase,"[4]; oral, single dose 100 mg/kg",-7
OC[C@@H](O)CN1CCN(c2ccccc2)CC1 [Levodropropyzina],ED50,"[1]; os, 95% confidence",151 mg/kg
same,ED50,"[2]; os, 95% confidence",145 mg/kg
same,ED50,"[8]; os, 95% confidence",265 mg/kg
